{"source": "patent US5220017A", "about": "“Cholecystokinin antagonists” (Merck & Co., Inc., priority 1992, dated 1993)", "key": {"[1]": {"test_system": "CCK-B receptors", "settings": "literature, in words; cited from earlier work"}, "[2]": {"test_system": "CCK receptor", "settings": "literature, in words; cited from earlier work"}, "[3]": {"target": "T1, CCK receptor (guinea pig brain cortex) (Cavia porcellus, UniProt H0VZC5)", "T1 construct": "the cortex was removed and homogenized in 25 mL ice-cold 0.32M sucrose; from tissue; host or cells: brain cortex P2 membranes, male Hartley guinea pig", "T1 sequence (H0VZC5 1-426)": "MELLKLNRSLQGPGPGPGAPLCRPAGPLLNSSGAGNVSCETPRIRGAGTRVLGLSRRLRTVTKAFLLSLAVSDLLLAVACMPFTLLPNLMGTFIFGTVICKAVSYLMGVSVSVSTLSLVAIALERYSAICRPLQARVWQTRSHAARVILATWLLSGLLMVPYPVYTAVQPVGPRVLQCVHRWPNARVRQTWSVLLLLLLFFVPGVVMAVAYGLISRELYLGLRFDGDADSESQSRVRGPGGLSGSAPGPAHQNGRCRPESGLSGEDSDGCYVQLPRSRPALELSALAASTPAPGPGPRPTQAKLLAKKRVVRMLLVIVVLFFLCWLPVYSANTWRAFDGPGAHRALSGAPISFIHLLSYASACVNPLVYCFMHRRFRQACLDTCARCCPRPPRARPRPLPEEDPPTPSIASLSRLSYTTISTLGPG", "test": "CCK Receptor Binding (Brain), 125I-CCK-8 displacement", "design": "species or system guinea pig (male Hartley)", "settings": "guinea pig cortex membranes, 50 pM 125I-CCK-8, 25° C., 2 hours, pH 6.5", "protocol": "2. CCK Receptor Binding (Brain)\nCCK-8 sulphated was radiolabelled and the binding was performed according to the description for the pancreas method with minor modifications.\nMale Hartley guinea pigs (300-500 g) were sacrificed by decapitation and the cortex was removed and homogenized in 25 mL ice-cold 0.32M sucrose. The homogenates were centrifuged at 1000 g for 10 minutes and the resulting supernatant was recentrifuged at 20,000 g for 20 minutes. […] All assays were run in duplicate. The reaction mixtures were incubated at 25° C. for 2 hours and then the reaction was terminated on Whatman GF/C filters by rapid filtration (Brandell 24 well cell Harvester) with 3×5 ml washes of cold 100 mM NaCl. The radioactivity on the filters was then counted with a LKB gamma counter.\nEffect of The Compounds of Formula I on ^125 I-CCK-8 receptor binding\n(§1) Drug displacement studies were performed with at least 10 concentrations of compounds of formula 1 and the IC50 values were determined by regression analysis."}, "[4]": {"target": "T2, CCK receptor (rat pancreas) (Rattus norvegicus, UniProt P30551)", "T2 construct": "The whole pancreas was dissected free of fat tissue and was homogenized; from tissue; host or cells: whole pancreas membranes, male Sprague-Dawley rat", "T2 sequence (P30551 1-444)": "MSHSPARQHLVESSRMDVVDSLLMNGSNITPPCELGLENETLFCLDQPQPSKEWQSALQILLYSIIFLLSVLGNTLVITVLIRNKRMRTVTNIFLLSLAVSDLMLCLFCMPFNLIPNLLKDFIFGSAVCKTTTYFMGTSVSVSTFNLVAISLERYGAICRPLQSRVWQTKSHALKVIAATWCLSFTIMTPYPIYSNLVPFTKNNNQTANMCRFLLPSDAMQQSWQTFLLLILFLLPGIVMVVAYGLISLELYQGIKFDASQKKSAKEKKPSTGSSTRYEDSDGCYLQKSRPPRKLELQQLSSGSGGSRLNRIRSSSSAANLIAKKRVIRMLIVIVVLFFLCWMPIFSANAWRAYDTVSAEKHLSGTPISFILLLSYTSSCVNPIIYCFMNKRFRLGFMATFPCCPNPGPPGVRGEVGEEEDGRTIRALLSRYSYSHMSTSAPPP", "test": "CCK Receptor Binding (Pancreas), 125I-CCK-8 displacement", "design": "species or system rat (male Sprague-Dawley)", "protocol": "1. CCK Receptor Binding (Pancreas)\nCCK-8 sulphated was radiolabelled with ^125 I-Bolton Hunter reagent (2000 Ci/mmole). Receptor binding was performed according to Chang and Lotti (Proc. Natl. Acad. Sci. 83, 4923-4926, 1986) with minor modifications.\nMale Sprague-Dawley rats (150-200 g) were sacrificed by decapitation. The whole pancreas was dissected free of fat tissue and was homogenized in 25 volumes of ice-cold 10 mM Hepes buffer with 0.1% soya bean trypsin inhibitor (pH 7.4 at 25° C.) with a Kinematica Polytron. The homogenates were centrifuged at 47,800 g for 10 min. Pellets were resuspended in 10 volumes of binding assay buffer (20 mM Hepes, 1 mM EGTA, 5 mM MgCl2, 150 mM NaCl, bacitracin 0.25 mg/ml, soya bean trypsin inhibitor 0.1 mg/ml, and bovine serum albumin 2 mg/ml, pH 6.5 at 25° C.) using a teflon homogenizer, 15 strokes at 500 rpm. The homogenate was further diluted in binding assay buffer to give a final concentration of 0.5 mg original wet weight/1 ml buffer. […] All assays were run in duplicate. […] The radioactivity on the filters was counted with a LKB gamma counter. […]\nas §1"}, "[5]": {"test_system": "gastrin", "settings": "literature, in words; cited from earlier work"}}, "note": "Non-standard residues stand in square brackets, D forms with d. Residues, ends and D or L forms follow the SMILES beside them. *: point of attachment. sY = N[C@@H](Cc1ccc(OS(=O)(=O)O)cc1)C(=O)O; Cbz = O=C(OCc1ccccc1)*; Boc = CC(C)(C)OC(=O)*", "data": [{"smiles": "Cc1cccc(NC(=O)N[C@@H]2N=C(c3ccccc3)c3ccccc3N(C)C2=O)c1", "note": "[(R)-N-(2,3-dihydro-1-methyl-2-oxo-5-phenyl-1H-1,4-benzodiazepin-3-yl)-N^1-(3-methylphenyl) urea]", "values": [{"measurement": "CCK-B antagonist potency and selectivity", "setting": "[1]", "value": "potent and selective antagonist of CCK-B receptors"}]}, {"smiles": "CSCC[C@H](NC(=O)OC(C)(C)C)C(=O)N[C@@H](CC(=O)O)C(=O)N[C@@H](Cc1ccccc1)C(N)=O", "note": "[Boc-Met-Asp-Phe-NH2] (Boc-Met-Asp-Phe-NH2)", "values": [{"measurement": "CCK antagonist/agonist character", "setting": "[2]", "value": "can function as CCK antagonists"}]}, {"smiles": "CSCC[C@H](NC(=O)[C@H](Cc1ccc(OS(=O)(=O)O)cc1)NC(=O)OCc1ccccc1)C(=O)NCC(=O)N[C@@H](Cc1c[nH]c2ccccc12)C(=O)N[C@@H](CCSC)C(=O)N[C@@H](CC(=O)O)C(N)=O", "note": "[Cbz-Tyr(SO3 H)-Met-Gly-Trp-Met-Asp-NH2] (Cbz-[sY]MGWMD-NH2)", "values": [{"measurement": "CCK antagonist/agonist character", "setting": "[2]", "value": "partial agonist"}]}, {"smiles": "Cc1cccc(N(CCC(=O)O)C(=O)NC2N=C(c3ccccc3)c3ccccc3N(C)C2=O)c1", "note": "(stereo not shown) [Example 1, N-{1,3-Dihydro-1-methyl-2-oxo-5-phenyl-1H-1,4-benzodiazepin-3-yl}-N'-carboxyethyl-N'-{[3-methylphenyl]-urea}]", "values": [{"measurement": "IC50", "setting": "[3]", "value": 3680, "unit": "nM"}, {"measurement": "IC50", "setting": "[4]", "value": "> 3", "unit": "µM"}]}, {"smiles": "Cc1cccc(NC(=O)N(CCC(=O)O)C2N=C(c3ccccc3)c3ccccc3N(C)C2=O)c1", "note": "(stereo not shown) [Example 2, N-{1,3-Dihydro-1-methyl-2-oxo-5-phenyl-1H-1,4-benzodiazepin-3-yl}-N-carboxyethyl-N'-{[3-methylphenyl]-urea}]", "values": [{"measurement": "IC50", "setting": "[3]", "value": 510, "unit": "nM"}, {"measurement": "IC50", "setting": "[4]", "value": "> 3", "unit": "µM"}]}, {"smiles": "CSCC[C@H](N)C(=O)N[C@@H](CC(=O)O)C(=O)N[C@@H](Cc1ccccc1)C(N)=O", "note": "[Met-Asp-Phe-NH2] (H-Met-Asp-Phe-NH2)", "values": [{"measurement": "CCK antagonist/agonist character", "setting": "[2]", "value": "can function as CCK antagonists"}]}, {"smiles": "CCCC(=O)Nc1nc2c(ncn2C2O[C@H]3COP(=O)(O)O[C@@H]3[C@@H]2OC(=O)CCC)c(=O)[nH]1", "note": "(stereo partly shown) [dibutyryl cyclic GMP]", "values": [{"measurement": "CCK antagonist/agonist character", "setting": "[2]", "value": "most potent"}]}, {"smiles": "CCCN(CCC)C(=O)C(CCC(=O)O)NC(=O)c1ccccc1", "note": "(stereo not shown) [proglumide]", "values": [{"measurement": "gastrin antagonism in vitro", "setting": "[5]", "value": "very weak in vitro antagonists"}]}]}
